{
  "source": "patent US9827237B2",
  "about": "“Compounds useful for treating diseases caused by retroviruses” (ABIVAX, priority 2013, dated 2017)",
  "system": "HTLV-1",
  "assay": "Inhibition of HTLV-1: Tax-1 protein expression by western blotting in HUT102 cells",
  "format": "cell-based, Human T-lymphotropic virus (HTLV)",
  "details": "HUT102 (HTLV-1 chronically infected) cells, 10 μM daily for three days; western blot, normalised by tubulin, related to DMSO treated cells; triplicate",
  "experimental": "To determine whether the compounds described above could act as HTLV inhibitors, a screen was performed on HUT102 (HTLV-1 chronically infected) cells.\nCells were plated at a density of 150 000 cells per well in 96 wells plates and treated daily with 10 μM of compounds for three days.\nCells were then harvested and an aliquot was used for cytotoxicity evaluation with Cell Titer (Promega).\nThe remaining cells was washed in phosphate buffer saline (PBS) and lysed for protein quantification with Bradford Assay (Sigma).\nThen, HTLV Tax-1 protein expression was evaluated from 30 μg of total proteins by western blotting analysis.\nTax-1 expression was normalised by tubulin expression and related to control (DMSO treated) cells. Each compound was tested in triplicate.",
  "data": [
    {"smiles": "COc1ccc(Nc2ccc3c(N4CCN(C)CC4)ccnc3c2)cc1", "note": "[Compound 166, N-(4-methoxyphenyl)-4-(4-methylpiperazin-1-yl)quinolin-7-amine]", "values": [
      {"measurement": "reduced Tax-1 expression when compared to control", "value": 80, "unit": "%"}
    ]}
  ]
}
